Experimental data as given in doi:10.1101/2023.05.15.540887, “Comparative analysis of drug-like EP300/CREBBP acetyltransferase inhibitors” (bioRxiv, 2023).
pIC50: −log10 of the molar value. Where two headings read alike, the source gives them in different places.

How the values were obtained:
SK-MEL-2 = assay: NCI-60 growth inhibition (sulforhodamine B); type: cell-based, human; details: SK-MEL-2 (Melanoma), negative log of Molar conc., LCONC -8
UACC-62 = assay: NCI-60 growth inhibition (sulforhodamine B); type: cell-based, human; details: UACC-62 (Melanoma), negative log of Molar conc., LCONC -8
HS578T [1] = assay: NCI-60 growth inhibition (sulforhodamine B); type: cell-based; details: Homo sapiens
RPMI-8226 = test system: RPMI-8226; set-up: method as in ref 29 (a number printed in a supplementary file, which may have a reference list of its own: not looked up in the article's list); details: Leukemia RPMI-8226; highest log conc -4.0; NCI-60 screen data; cited from earlier work
SR = test system: SR; set-up: method as in ref 29 (a number printed in a supplementary file, which may have a reference list of its own: not looked up in the article's list); details: Leukemia SR; highest log conc -4.0; NCI-60 screen data; cited from earlier work
NCI-H226 = test system: NCI-H226; set-up: method as in ref 29 (a number printed in a supplementary file, which may have a reference list of its own: not looked up in the article's list); details: Non-SmallCellLung NCI-H226; highest log conc -4.0; NCI-60 screen data; cited from earlier work
SF-295 = test system: SF-295; set-up: method as in ref 29 (a number printed in a supplementary file, which may have a reference list of its own: not looked up in the article's list); details: CNS SF-295; highest log conc -4.0; NCI-60 screen data; cited from earlier work
SF-539 = test system: SF-539; set-up: method as in ref 29 (a number printed in a supplementary file, which may have a reference list of its own: not looked up in the article's list); details: CNS SF-539; highest log conc -4.0; NCI-60 screen data; cited from earlier work
SNB-19 = test system: SNB-19; set-up: method as in ref 29 (a number printed in a supplementary file, which may have a reference list of its own: not looked up in the article's list); details: CNS SNB-19; highest log conc -4.0; NCI-60 screen data; cited from earlier work
U251 = test system: U251; set-up: method as in ref 29 (a number printed in a supplementary file, which may have a reference list of its own: not looked up in the article's list); details: CNS U251; highest log conc -4.0; NCI-60 screen data; cited from earlier work
OVCAR-4 = test system: OVCAR-4; set-up: method as in ref 29 (a number printed in a supplementary file, which may have a reference list of its own: not looked up in the article's list); details: Ovarian OVCAR-4; highest log conc -4.0; NCI-60 screen data; cited from earlier work
OVCAR-8 = test system: OVCAR-8; set-up: method as in ref 29 (a number printed in a supplementary file, which may have a reference list of its own: not looked up in the article's list); details: Ovarian OVCAR-8; highest log conc -4.0; NCI-60 screen data; cited from earlier work
786-0 = test system: 786-0; set-up: method as in ref 29 (a number printed in a supplementary file, which may have a reference list of its own: not looked up in the article's list); details: Renal 786-0; highest log conc -4.0; NCI-60 screen data; cited from earlier work
A498 = test system: A498; set-up: method as in ref 29 (a number printed in a supplementary file, which may have a reference list of its own: not looked up in the article's list); details: Renal A498; highest log conc -4.0; NCI-60 screen data; cited from earlier work
ACHN = test system: ACHN; set-up: method as in ref 29 (a number printed in a supplementary file, which may have a reference list of its own: not looked up in the article's list); details: Renal ACHN; highest log conc -4.0; NCI-60 screen data; cited from earlier work
CAKI-1 = test system: CAKI-1; set-up: method as in ref 29 (a number printed in a supplementary file, which may have a reference list of its own: not looked up in the article's list); details: Renal CAKI-1; highest log conc -4.0; NCI-60 screen data; cited from earlier work
TK-10 = test system: TK-10; set-up: method as in ref 29 (a number printed in a supplementary file, which may have a reference list of its own: not looked up in the article's list); details: Renal TK-10; highest log conc -4.0; NCI-60 screen data; cited from earlier work
MDA-MB-231/ATCC = test system: MDA-MB-231/ATCC; set-up: method as in ref 29 (a number printed in a supplementary file, which may have a reference list of its own: not looked up in the article's list); details: Breast MDA-MB-231/ATCC; highest log conc -4.0; NCI-60 screen data; cited from earlier work
HS578T [2] = test system: HS578T; set-up: method as in ref 29 (a number printed in a supplementary file, which may have a reference list of its own: not looked up in the article's list); details: Breast HS578T; highest log conc -4.0; NCI-60 screen data; cited from earlier work
BT-549 = test system: BT-549; set-up: method as in ref 29 (a number printed in a supplementary file, which may have a reference list of its own: not looked up in the article's list); details: Breast BT-549; highest log conc -4.0; NCI-60 screen data; cited from earlier work
NCI-H23 = test system: NCI-H23; set-up: method as in ref 29 (a number printed in a supplementary file, which may have a reference list of its own: not looked up in the article's list); details: Non-SmallCellLung NCI-H23; highest log conc -4.0; NCI-60 screen data; cited from earlier work
[3] = Homo sapiens, read-out: IC50 NLOGVALUE
[4] = Homo sapiens, read-out: LC50 NLOGVALUE

Structure (SMILES)	GI50 AVGDATA (RPMI-8226)	GI50 AVGDATA (SR)	GI50 AVGDATA (NCI-H226)	GI50 AVGDATA (SF-295)	GI50 AVGDATA (SF-539)	GI50 AVGDATA (SNB-19)	GI50 AVGDATA (U251)	GI50 AVGDATA (OVCAR-4)	GI50 AVGDATA (OVCAR-8)	GI50 AVGDATA (786-0)	GI50 AVGDATA (A498)	GI50 AVGDATA (ACHN)	GI50 AVGDATA (CAKI-1)	GI50 AVGDATA (TK-10)	GI50 AVGDATA (MDA-MB-231/ATCC)	GI50 AVGDATA (HS578T [2])	GI50 AVGDATA (BT-549)	GI50 AVGDATA (NCI-H23)	other results
C[C@H](CN[C@@H](C(=O)Nc1ccc(-c2cnn(C)c2)cn1)c1ccccc1)c1ccc(C#N)cc1 [CPI-1612]	–	–	–	–	–	–	–	–	–	–	–	–	–	–	–	–	–	–	GI50 (SK-MEL-2; Homo sapiens, read-out: GI50 NLOGVALUE (converted)): 0.851 µM; pIC50 (SK-MEL-2; [3]): < 4.00; CC50 (SK-MEL-2; [4]): > 100 µM; TGI NLOGVALUE (SK-MEL-2): 4; GI50 (UACC-62; Homo sapiens, read-out: GI50 NLOGVALUE): > 100 µM; pIC50 (UACC-62; [3]): < 4.00; CC50 (UACC-62; [4]): > 100 µM; TGI NLOGVALUE (UACC-62): 4; GI50 (HS578T [1]; Hs-578T, read-out: GI50 AVGDATA (converted)): 0.0138 µM; GI50 (HS578T [1]; HS 578T, Breast Cancer, negative log of Molar value, LCONC -8, EXPID 2301NS84, read-out: GI50 NLOGVALUE (converted)): 0.0141 µM; pIC50 (HS578T [1]; HS 578T, Breast Cancer, negative log of Molar value, LCONC -8, EXPID 2301NS84, read-out: IC50 NLOGVALUE): < 4.00; CC50 (HS578T [1]; HS 578T, Breast Cancer, negative log of Molar value, LCONC -8, EXPID 2301NS84, read-out: LC50 NLOGVALUE): > 100 µM
COC(=O)N1c2ccc3c(nc(Cc4ccccc4)n3[C@H]3CCC[C@H](C(=O)O)C3)c2CC[C@@H]1C [FT-6876]	-5.42	-4.86	-4.85	-4.93	-4.8	-4.9	-4.77	-5.17	-4.55	-5.25	-4.91	-4.77	-5.74	-5.24	-4.8	-5.49	-4.31	–	–
Cc1sc2c(c1C)C(c1ccc(Cl)cc1)=N[C@@H](CC(=O)OC(C)(C)C)c1nnc(C)n1-2 [JQ-1]	-7.4	-7.35	-4.99	-6.74	-6.34	-6.38	-5.91	-6.82	-6.21	-6.08	-7.21	-6.3	-7.27	-7.23	-6.52	-7.25	-5.51	-6.55	–
CO[C@H]1CC[C@H](n2c([C@@H]3CCCC(=O)N3c3ccc(F)c(F)c3)nc3cc(-c4c(C)noc4C)ccc32)CC1 [inobrodib]	-6.15	-6.12	-5.37	-5.17	-5.01	-5.03	-4.99	-6.11	-4.99	–	-5.22	-5.32	-6.19	-5.61	-5.07	-5.68	-4.99	-4.88	–
